# Test results: patent publication US10639371B2, “Thermoresponsive bioconjugates and their controlled delivery of cargo” (University of Delaware, priority 2015, dated 2020)
# Where no end group is shown, it is not given here.
# Experiments:
# [1] = Circular dichroic spectroscopy (CD), thermal unfolding of CLP triple helix; assay type: physicochemical; details: first derivative of CD melting curve
# Procedure: (§1) The ability of the CLP domain to form stable triple helix at physiological temperature while conjugated to the ELP was probed via circular dichroic spectroscopy (CD). The CD spectra of ELP-CLP at temperatures ranging from 5° C. to 80° C. […] Presumably, the collapse of the ELP domain at the elevated temperatures anchors the CLP and stabilizes it against unfolding, similar to our previously reported results for a polymer-conjugated CLP. The refolding of the CLP triple helix (FIGS. 2c and 2d) is likewise accelerated by the ELP anchoring of the CLP, owing to the increase in the local concentration of the CLP strands.
# [2] = CD refolding of CLP triple helix after quenching from 80° C. to 5° C.; assay type: physicochemical
# Procedure: as §1
# [3] = Dynamic light scattering (DLS) of assemblies upon heating; assay type: physicochemical; details: ELP alone, 1 mg/mL in water
# Procedure: (A) ELP at 1 mg/mL in water; (B) ELP and CLP physical mixture at 0.5 mg/mL each in water.
# The anticipated assembly of ELP-CLP nanostructures at physiologically relevant temperatures was confirmed via dynamic light scattering (DLS) (FIG. 3). In contrast to our expectations that nanoparticle formation would be triggered at near physiological temperature, however, the conjugates formed structures with hydrodynamic diameters (Dh) that ranged from approximately 50 to 200 nm at all temperatures between 4° C. and 65° C. (FIG. 3a), with a Dh of approximately 160 nm at 37° C. (FIG. 3b).
# The anchoring of the ELP by the noncovalent formation of CLP triple helix, however, should offer unique and as yet unreported opportunities to reversibly modulate the transition temperatures of the ELP domain and to thus confer dual thermoresponsiveness to the conjugates. Indeed, after an initial increase in the Dh of the ELP-CLP nanoparticles with heating to 50° C. (FIG. 3), Dh begins to decrease once the sample is heated above this temperature, which is also approximately the melting temperature of the CLP (FIG. 2b). With additional heating to 80° C., the CLP unfolds completely (FIG. 2b), and the nanoparticles become fully solubilized as monomers with an average Dh of only 5.6 nm (FIG. 3b). […]
# [4] = system: TNF-α production from RAW264.7 macrophages; experiment: TNF-α ELISA, RAW264.7 macrophages (inflammation response); assay type: cell-based
# Procedure: Blank PBS was used as a negative control and lipopolysaccharide (LPS, 50 ng/mL) was used as a positive control; and (B) TNF-α production from RAW264.7 macrophages, treated with ELP-CLP nanoparticles at various concentrations. Blank PBS was used as a negative control and lipopolysaccharide (LPS, 50 ng/mL) was used as a positive control.
# (B) Viability of NIH-3T3 fibroblasts (8,000 cells/cm^2 in DMEM/10% FBS); live/dead overlay shown. (C) TNF-α production from RAW264.7 murine macrophage-like cell culture (15,000 cells/cm^2 in DMEM/10% FBS) in the presence of various concentrations of CLP-ELP nanoparticles.
# RAW264.7 murine macrophages were purchased from American Type Culture Collection (ATCC) and were cultured in DMEM (Sigma Aldrich) supplemented with 10% heat-inactivated fetal bovine serum (MediaTech), 10 mM HEPES (GIBCO), 55 μM β-mercaptoethanol (GIBCO), and 1% antibiotic/antimycotic (GIBCO) at 37° C. with 5% CO2. […] Cell metabolism post-treatment was assayed using PrestoBlue Viability Assay (Life Technologies), which provides a fluorescence measurement of the overall reductive capability of the cells, according to the manufacturer's instructions. […] After 2 h of incubation at 37° C., the medium was collected and analyzed using a PerkinElmer VICTOR3 1420 Multilabel Plate Reader (PerkinElmer, Waltham, Mass.) at excitation/emission wavelengths of 570 nm/615 nm. […]
substance,measurement,setting,value
(GPO)4GFOGER(GPO)4GG [CLP],Tm (unfolding of CLP triple helix),[1],ca. 50 °C
same,rate constant of triple helix refolding reaction,[2],1.14×10^7 M^−2·s^−1
"(VPGFG)6 (VPGFGVPGFGVPGFGVPGFGVPGFGVPGFG; also: alkyne functionalization, site not given here) [ELP]",inverse transition / aggregation upon heating,[3],does not undergo a transition
lipopolysaccharide [LPS],TNF-α expression,"[4]; FIG. 18C, 15,000 cells/cm^2, various concentrations",elevated TNF-α expression
same,TNF-α expression,"[4]; nanoparticles 50-1000 μg/mL, LPS 50 ng/mL, 8 h",high levels of TNF-α expression
